Assay results published in US6812377B2, “Genetic engineering of syringyl-enriched lignin in plants” (Board of Control of Michigan Technological University, priority 2000, dated 2004).

Legend:
Type in all cases: biochemical
[1] = molecular target: T1, recombinant PtCAD protein (Populus tremuloides, UniProt Q9M632); assay: Kinetic properties of the recombinant PtCAD protein (HPLC-UV/MS); details: substrate of PtCAD; relative, coniferaldehyde = 100
Protocol: (§1) To characterize the enzyme pH optima, the substrate and recombinant PtCAD or PtSAD protein concentrations described above were used in sodium phosphate buffers, pH 5 to 8.5. […] For inhibition kinetics, the PtCAD-mediated reduction of sinapaldehyde (1 to 200 μM) was assayed in the presence of 1 to 5 μM coniferaldehyde, and the PtSAD-catalyzed reduction of coniferaldehyde (1 to 200 μM) was assayed in the presence of 1 to 5 μM sinapaldehyde. All reactions were terminated by the addition of 10 μL of 6 N HCI (to bring the pH to 2) and 500 ng of internal standard o-coumaric acid and analyzed by HPLC-UV/MS. An aliquot of 100 μL of reaction mixture was injected directly onto a Supelcosil LC-ABZ column (15 cm×4.6 mm×5 μm; Supelco, Bellefonte, Pa.) with automatic sample injection and separated isocratically with a Hewlett-Packard (HP) 1100 liquid chromatography system at 40° C. and a flow rate of 0.25 mL/min. […] The reaction products were identified and confirmed by comparing the ion fragmentation patterns of the product and the authentic standard in MS scanning mode at 70 V. The product quantity and Km, Vmax, kcat, and apparent inhibition constant (Ki) values (means±SE) were determined as described (Osakabe et al., 1999; Li et al., 2000). The results of the inhibition kinetics for both the CAD enzyme (i.e. Table 2) and the SAD enzyme (i.e., Table 3) using a variety of substrates are illustrated below.

[2] = molecular target: recombinant PtSAD protein (Populus tremuloides, UniProt Q94G59); assay: Kinetic properties of the recombinant PtSAD protein (HPLC-UV/MS); details: substrate of PtSAD; relative, sinapaldehyde = 100
Protocol: as §1

[3] = molecular target: T1, recombinant PtCAD protein; assay: PtCAD enzyme activity with a mixture of coniferaldehyde and sinapaldehyde (HPLC-MS)
From the text: A guaiacyl pathway gene encoding coniferyl alcohol dehydrogenase (CAD, FIG. 1) from Populus tremuloides (GenBank #AF217957) was first cloned. This cDNA was designated as PtCAD (GenBank #AF217957). E. coli-expressed recombinant PtCAD protein was characterized for its catalytic activity with coniferaldehyde and sinapaldehyde. Because monolignol biosynthetic pathway intermediates are present together in lignifying tissues (Osakabe et al., 1999; Li et al. 2000), the PtCAD enzyme activity with a mixture of coniferaldehyde and sinapaldehyde was assayed. As shown in FIG. 5 (a) and (c), the reaction mixture was separated by HPLC after the enzyme reaction. […]
An aliquot of 100 μL of reaction mixture was injected directly onto a Supelcosil LC-ABZ column (15 cm×4.6 mm×5 μm; Supelco, Bellefonte, Pa.) with automatic sample injection and separated isocratically with a Hewlett-Packard (HP) 1100 liquid chromatography system at 40° C. and a flow rate of 0.25 mL/min. […] The reaction products were identified and confirmed by comparing the ion fragmentation patterns of the product and the authentic standard in MS scanning mode at 70 V. The product quantity and Km, Vmax, kcat, and apparent inhibition constant (Ki) values (means±SE) were determined as described (Osakabe et al., 1999; Li et al., 2000). […]

T1 sequence (Q9M632 entry or part of it): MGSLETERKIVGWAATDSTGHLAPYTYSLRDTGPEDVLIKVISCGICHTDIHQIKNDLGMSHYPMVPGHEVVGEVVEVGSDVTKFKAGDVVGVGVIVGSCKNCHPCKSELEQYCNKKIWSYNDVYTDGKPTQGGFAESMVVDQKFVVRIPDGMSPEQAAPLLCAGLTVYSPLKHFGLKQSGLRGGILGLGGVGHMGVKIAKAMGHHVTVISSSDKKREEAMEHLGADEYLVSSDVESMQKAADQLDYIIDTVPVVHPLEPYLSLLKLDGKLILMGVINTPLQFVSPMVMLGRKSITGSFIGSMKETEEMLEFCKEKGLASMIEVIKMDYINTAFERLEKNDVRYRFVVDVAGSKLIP
Sequence of recombinant PtSAD protein (Q94G59 entry or part of it): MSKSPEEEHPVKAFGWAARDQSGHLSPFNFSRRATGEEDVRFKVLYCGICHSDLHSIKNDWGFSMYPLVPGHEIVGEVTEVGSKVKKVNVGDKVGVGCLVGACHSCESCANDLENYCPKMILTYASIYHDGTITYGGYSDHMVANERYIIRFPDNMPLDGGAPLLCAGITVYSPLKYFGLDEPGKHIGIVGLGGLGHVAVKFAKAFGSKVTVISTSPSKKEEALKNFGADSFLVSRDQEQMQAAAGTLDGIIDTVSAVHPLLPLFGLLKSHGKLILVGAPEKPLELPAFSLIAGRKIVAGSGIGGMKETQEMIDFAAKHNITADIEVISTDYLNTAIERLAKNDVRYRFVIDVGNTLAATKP

COc1cc(/C=C/C=O)ccc1O [Coniferaldehyde]
Vmax/Km [1]: 100% | Vmax/Km [2]: 26.6% | reaction of PtCAD with the substrate in a mixture [3]: Only coniferyl alcohol was formed
